Series [1] has as its system HEK293 cells. Nature of the series: Fluorescence microscopy screening: accumulation independent from control conditions. Format: cell-based, human. Conditions: 50 μM, 10 min, all HEK293 cell lines, with and without sodium. As for the experimental part:
(§1) Then, all cell lines were cultivated in chamber slides and were grown to confluence to screen for carrier-mediated cellular accumulation of the synthesized NBD-BA. Incubation with the NBD-BA was done in the presence of sodium (+Na^+) as well as in the absence of sodium (-Na^+, negative control) for all SLC10 carriers, namely NTCP, ASBT, mNtcp, mAsbt, and SOAT. For OATP1B1 and OATP1B3, nontransfected HEK293 cells were used as negative control.
(§2) 4 Screening of the cellular uptake of 3-NBD-BA in HEK293 (HEK) cells stably expressing the human carriers NTCP, ASBT, SOAT, OATP1B1, and OATP1B3, or the mouse carriers mNtcp and mAsbt. For the SLC10 carriers, sodium-free conditions (-Na^+) were used as control. For the OATPs, experiments in non-carrier-expressing HEK293 cells (HEK) served as control. All cell lines were incubated for 10 min with the indicated 3-NBD-BA at 50 μM concentration. Then, cells were washed with PBS and subjected to fluorescence microscopy. Identical microscope settings were used for all images. Scale bar: 75 μm.

In series [2] the target is T1, mouse mAsbt (Mus musculus, UniProt P70172).
T1 sequence (P70172 1-348): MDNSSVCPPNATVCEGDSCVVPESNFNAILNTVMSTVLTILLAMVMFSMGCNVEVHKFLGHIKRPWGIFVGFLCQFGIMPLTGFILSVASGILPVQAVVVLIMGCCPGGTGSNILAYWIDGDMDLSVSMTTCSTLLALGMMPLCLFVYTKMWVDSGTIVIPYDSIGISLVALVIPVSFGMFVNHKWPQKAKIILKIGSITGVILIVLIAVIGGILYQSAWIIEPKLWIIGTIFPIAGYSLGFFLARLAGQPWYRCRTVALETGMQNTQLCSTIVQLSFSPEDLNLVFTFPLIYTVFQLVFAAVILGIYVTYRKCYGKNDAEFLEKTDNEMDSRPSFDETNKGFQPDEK
Kind of series: Fluorescence microscopy screening of cellular uptake of 3-NBD-BA. Conditions: 50 μM, 10 min, +Na+ vs -Na+. Details: stably transfected with the full open reading frames of human NTCP, ASBT, SOAT, OATP1B1, and OATP1B3 as well as mouse mNtcp and mAsbt; expressed in transfected cells. It counts as cell-based. As for the experimental part:
as §1, §2

Series [3] has as its target T1, mouse mAsbt. Kind of series: Transport kinetics of conjugated 3-NBD-BA (concentration-dependent uptake). It counts as cell-based. Details: stably transfected with the full open reading frames of human NTCP, ASBT, SOAT, OATP1B1, and OATP1B3 as well as mouse mNtcp and mAsbt; expressed in transfected cells. Conditions: mAsbt-HEK293, 10 min uptake, 37 °C, specific (Na+-dependent) uptake. As to the method:
In a first step, the time-dependent transport of all conjugated NBD-BA was analyzed. […] Based on these findings, an uptake phase of 10 min was selected as the most practical for subsequent kinetic transport measurements. […] In contrast, for ASBT, reliable carrier-specific concentration-dependent transport rates and K m values could only be determined for 3α-NBD-GCA (16d). The transport rates for 3β-NBD-TCA (14a), 3β-NBD-TCDCA (14b), 3β-NBD-GCA (16a), and 3α-NBD-TCA (14d) were at ≤ 2 across the entire concentration range and were therefore not considered biologically meaningful.
7 ASBT and mAsbt transport kinetics for conjugated 3-NBD-BA. Concentration-dependent uptake of the indicated NBD-coupled BA was analyzed in HEK293 cells stably expressing human ASBT or mouse mAsbt at increasing substrate concentrations. Control experiments were performed in the absence of sodium (-Na^+). Uptake was analyzed for 10 min at 37 °C with transport buffer containing the indicated 3-NBD-BA. Afterward, the transport medium was removed, and each cell monolayer was washed and processed for fluorescence detection. Specific uptake was calculated by subtracting the nonspecific uptake in the absence of sodium (-Na^+, open symbols) from the uptake in the presence of sodium (+Na^+, closed symbols) and is shown by dotted lines. Values represent means ± SD of quadruplicate determinations. Michaelis Menten K m values were calculated by nonlinear regression analysis based on the specific uptake data. For ASBT, reliable specific uptake data could only be determined for 3α-NBD-GCA (16d).

In series [4] the target is T2, mouse mNtcp (Mus musculus, UniProt O08705).
T2 construct: stably transfected with the full open reading frames of human NTCP, ASBT, SOAT, OATP1B1, and OATP1B3 as well as mouse mNtcp and mAsbt; expressed in transfected cells
T2 sequence (O08705 1-362): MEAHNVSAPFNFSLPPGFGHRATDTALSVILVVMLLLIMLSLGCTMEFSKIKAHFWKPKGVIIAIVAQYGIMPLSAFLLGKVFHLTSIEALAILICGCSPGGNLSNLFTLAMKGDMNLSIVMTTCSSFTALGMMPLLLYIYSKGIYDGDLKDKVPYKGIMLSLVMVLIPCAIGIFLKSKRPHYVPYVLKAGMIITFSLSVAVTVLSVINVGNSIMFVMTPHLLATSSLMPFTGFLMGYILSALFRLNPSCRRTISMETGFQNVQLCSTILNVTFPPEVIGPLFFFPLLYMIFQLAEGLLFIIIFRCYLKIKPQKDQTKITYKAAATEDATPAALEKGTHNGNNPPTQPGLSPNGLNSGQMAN
Kind of series: Fluorescence microscopy screening of cellular uptake of 3-NBD-BA. Format: cell-based. Conditions: 50 μM, 10 min, +Na+ vs -Na+. As for the experimental part:
as §1, §2

Series [5] has as its target T3, human NTCP (Homo sapiens, UniProt Q14973).
T3 construct: HEK293 cell lines stably transfected with the full open reading frames of human NTCP; expressed in transfected cells
T3 sequence (Q14973 1-349): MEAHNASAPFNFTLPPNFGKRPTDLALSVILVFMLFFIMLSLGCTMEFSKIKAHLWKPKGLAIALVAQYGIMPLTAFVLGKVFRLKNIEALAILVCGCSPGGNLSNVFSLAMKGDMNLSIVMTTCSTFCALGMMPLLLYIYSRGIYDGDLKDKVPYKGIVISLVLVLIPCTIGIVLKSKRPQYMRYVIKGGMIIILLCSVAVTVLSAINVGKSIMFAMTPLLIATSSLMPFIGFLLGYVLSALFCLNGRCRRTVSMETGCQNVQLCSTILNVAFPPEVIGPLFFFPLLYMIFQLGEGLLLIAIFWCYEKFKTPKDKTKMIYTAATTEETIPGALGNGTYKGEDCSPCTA
The series is described as above. It counts as cell-based. To be noted: 50 μM, 10 min, +Na+ vs -Na+. As to the method:
as §1, §2

Details of series [6]: method as in not given. Conditions: ref not given, cited from earlier work.

Where “and” joins values, the source holds several entries; their conditions need not be identical. Equal entries are not always repeated.

For “7α-Hydroxy-3β-[(7-nitro-2,1,3-benzoxadiazol-4-yl)amino]-5β-cholan-24-oate [6b]”, in series [1], the “Cellular NBD-fluorescence irrespective of carrier/control conditions (microscopy)” value is “significant increase in cellular NBD-fluorescence, independent from the control conditions”.

In the case of `C[C@H](CCC(=O)O)[C@H]1CC[C@H]2[C@@H]3[C@H](O)C[C@@H]4C[C@@H](Nc5ccc([N+](=O)[O-])c6nonc56)CC[C@]4(C)[C@H]3C[C@H](O)[C@]12C` [6a, 7α,12α-Dihydroxy-3β-[(7-nitro-2,1,3-benzoxadiazol-4-yl)amino]-5β-cholan-24-oate], in series [1], the “Cellular NBD-fluorescence irrespective of carrier/control conditions (microscopy)” value was “significant increase in cellular NBD-fluorescence, independent from the control conditions”.

`C[C@H](CCC(=O)O)[C@H]1CC[C@H]2[C@@H]3[C@H](O)C[C@@H]4C[C@H](Nc5ccc([N+](=O)[O-])c6nonc56)CC[C@]4(C)[C@H]3C[C@H](O)[C@]12C` [6d, 7α,12α-Dihydroxy-3α-[(7-nitro-2,1,3-benzoxadiazol-4-yl)amino]-5β-cholan-24-oate]: in series [1], the “Cellular NBD-fluorescence irrespective of carrier/control conditions (microscopy)” value was “significant increase in cellular NBD-fluorescence, independent from the control conditions”.

As to `C[C@H](CCC(=O)NCCS(=O)(=O)[O-])[C@H]1CC[C@H]2[C@@H]3[C@H](O)C[C@@H]4C[C@@H](Nc5ccc([N+](=O)[O-])c6nonc56)CC[C@]4(C)[C@H]3C[C@H](O)[C@]12C.[Na+]` [14a], the “Cellular NBD-fluorescence, mAsbt-HEK293 (microscopy)” value in series [2] is listed as “significant increase in cellular NBD-fluorescence compared to the negative control”. The “K m mAsbt” value in series [3] was 20.0 µM and 20 µM. Further, in series [4], the “Cellular NBD-fluorescence, mNtcp-HEK293 (microscopy)” value is reported as “significant increase in cellular NBD-fluorescence compared to the negative control”. In addition, the “Cellular NBD-fluorescence, NTCP-HEK293 (microscopy)” value in series [5] is “significant increase in cellular NBD-fluorescence compared to the negative control”. Also, the “Amount injected recovered in the bile” value in series [6] (in situ liver perfusion, injected into the mesenterial vein, within 30 min) was 95%.

As to `C[C@H](CCC(=O)NCCS(=O)(=O)[O-])[C@H]1CC[C@H]2[C@@H]3[C@H](O)C[C@@H]4C[C@H](Nc5ccc([N+](=O)[O-])c6nonc56)CC[C@]4(C)[C@H]3C[C@H](O)[C@]12C.[Na+]` [14d], the “Cellular NBD-fluorescence, mAsbt-HEK293 (microscopy)” value in series [2] is recorded as “significant increase in cellular NBD-fluorescence compared to the negative control”. In addition, the “K m mAsbt” value in series [3] amounted to 11.1 µM. Also, the “Cellular NBD-fluorescence, mNtcp-HEK293 (microscopy)” value in series [4] is given as “significant increase in cellular NBD-fluorescence compared to the negative control”. For the same compound, in series [5], the “Cellular NBD-fluorescence, NTCP-HEK293 (microscopy)” value is recorded as “significant increase in cellular NBD-fluorescence compared to the negative control”. Further, the “Fate in the liver (metabolism, secretion into bile)” value in series [6] (in situ liver perfusion with bile duct cannulation) is “completely transformed within the liver cells to a polar fluorescent metabolite that showed sparse secretion into bile”.

Take `C[C@H](CCC(=O)NCC(=O)O)[C@H]1CC[C@H]2[C@@H]3[C@H](O)C[C@@H]4C[C@H](Nc5ccc([N+](=O)[O-])c6nonc56)CC[C@]4(C)[C@H]3C[C@H](O)[C@]12C` [16d]: the “Cellular NBD-fluorescence, mAsbt-HEK293 (microscopy)” value in series [2] was “significant increase in cellular NBD-fluorescence compared to the negative control”. In addition, the “K m mAsbt” value in series [3] is 14.5 µM. In addition, the “Cellular NBD-fluorescence, mNtcp-HEK293 (microscopy)” value in series [4] is on record as “significant increase in cellular NBD-fluorescence compared to the negative control”. Also, the “Cellular NBD-fluorescence, NTCP-HEK293 (microscopy)” value in series [5] is reported as “significant increase in cellular NBD-fluorescence compared to the negative control”.

Turning to “12α-Hydroxy-3β-[(7-nitro-2,1,3-benzoxadiazol-4-yl)amino]-5β-cholan-24-oate [6c]”, the “Cellular NBD-fluorescence irrespective of carrier/control conditions (microscopy)” value in series [1] is listed as “significant increase in cellular NBD-fluorescence, independent from the control conditions”.

Turning to `C[C@H](CCC(=O)NCC(=O)O)[C@H]1CC[C@H]2[C@@H]3[C@H](O)C[C@@H]4C[C@@H](Nc5ccc([N+](=O)[O-])c6nonc56)CC[C@]4(C)[C@H]3C[C@H](O)[C@]12C` [16a], the “Cellular NBD-fluorescence, mAsbt-HEK293 (microscopy)” value in series [2] is “significant increase in cellular NBD-fluorescence compared to the negative control”. Besides, in series [3], the “K m mAsbt” value was 3.5 µM. Besides, the “Cellular NBD-fluorescence, mNtcp-HEK293 (microscopy)” value in series [4] is reported as “significant increase in cellular NBD-fluorescence compared to the negative control”. Besides, the “Cellular NBD-fluorescence, NTCP-HEK293 (microscopy)” value in series [5] is reported as “significant increase in cellular NBD-fluorescence compared to the negative control”.

Source of the values: paper PMC12169615, “Fluorescent 4‑Nitrobenzo-2-oxa-1,3-diazole-Coupled Bile Acids as Probe Substrates of Hepatic and Intestinal Bile Acid Transporters of the Solute Carrier Families SLC10 and SLCO” (Journal of Medicinal Chemistry, 2025).
